Measured values reported in ChEMBL document CHEMBL1201862, “PubChem BioAssay data set” (2004).
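How tested: cells in 96-well plates exposed to compound for 48 hours at five concentrations. GI50 = concentration required for 50% inhibition of growth.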 Calls of active or inactive are those of the source. No stated cut-off is given here; in the data, active = GI50 up to about 1.1 µM and inactive = higher.

Assays:
Experiment in all cases: NCI anticancer screen, dose series, 48 h
[1] = tested on: 786-0
[2] = tested on: A549
[3] = tested on: CAKI-1
[4] = tested on: HCT-15
[5] = tested on: HT-29
[6] = tested on: K562
[7] = tested on: MDA-N
[8] = tested on: MOLT-4
[9] = tested on: NCI-H522
[10] = tested on: NCI/ADR-RES
[11] = tested on: OVCAR-4
[12] = tested on: SK-MEL-5
[13] = tested on: SN12C
[14] = tested on: SNB-75
[15] = tested on: SR
[16] = tested on: TK-10
[17] = tested on: UO-31
[18] = tested on: HOP-92
[19] = tested on: RXF 393
[20] = tested on: SK-MEL-28

| SMILES | GI50 [1] | GI50 [2] | GI50 [3] | GI50 [4] [µM] | GI50 [5] | GI50 [6] | GI50 [7] | GI50 [8] | GI50 [9] | GI50 [10] | GI50 [11] | GI50 [12] | GI50 [13] | GI50 [14] | GI50 [15] | GI50 [16] | GI50 [17] | GI50 [18] | GI50 [19] | GI50 [20] |
| --- | --- | --- | --- | --- | --- | --- | --- | --- | --- | --- | --- | --- | --- | --- | --- | --- | --- | --- | --- | --- |
| OCCN(C1=NCCN1)/[N+](=C/c1ccccc1O)[CH-]c1ccccc1O | > 100 µM (inactive) | > 100 µM (inactive) | > 100 µM (inactive) | 51.5 | > 100 µM (inactive) | > 100 µM (inactive) | > 100 µM (inactive) | > 100 µM (inactive) | > 100 µM (inactive) | 83.6 µM (inactive) | > 100 µM (inactive) | > 100 µM (inactive) | > 100 µM (inactive) | > 100 µM (inactive) | > 100 µM (inactive) | > 100 µM (inactive) | 37 µM (inactive) | – | – | – |
| O=[N+]([O-])c1cc(Cl)cnc1Br | 5.83 µM (inactive) | 2.67 µM (inactive) | 1.86 µM (inactive) | 2.25 | 3.28 µM (inactive) | 2.64 µM (inactive) | 3.33 µM (inactive) | 1.25 µM (inactive) | – | 2.14 µM (inactive) | 2.28 µM (inactive) | 2.4 µM (inactive) | 2.92 µM (inactive) | – | – | 3.22 µM (inactive) | 1.76 µM (inactive) | 8.75 µM (inactive) | 1.52 µM (inactive) | 3.33 µM (inactive) |
| CC(C)c1c(P(=O)(c2ccccc2)c2ccccc2)n(C)c2ccccc12 | > 100 µM (inactive) | 51.6 µM (inactive) | – | 72.3 | 53.8 µM (inactive) | 37.8 µM (inactive) | 56.1 µM (inactive) | 34.8 µM (inactive) | 23.4 µM (inactive) | 43.1 µM (inactive) | 71.4 µM (inactive) | – | > 100 µM (inactive) | 95.3 µM (inactive) | 49.9 µM (inactive) | > 100 µM (inactive) | 31.8 µM (inactive) | > 100 µM (inactive) | – | 76.7 µM (inactive) |
| CC(C)[Si](OC1=C(C(=O)N(C)c2ccccc2Cl)CCCCC1)(C(C)C)C(C)C | > 100 µM (inactive) | > 100 µM (inactive) | > 100 µM (inactive) | > 100 | > 100 µM (inactive) | – | > 100 µM (inactive) | > 100 µM (inactive) | 97.1 µM (inactive) | > 100 µM (inactive) | > 100 µM (inactive) | > 100 µM (inactive) | > 100 µM (inactive) | > 100 µM (inactive) | – | > 100 µM (inactive) | > 100 µM (inactive) | > 100 µM (inactive) | > 100 µM (inactive) | > 100 µM (inactive) |
| CN1CCC2(CC1)SSC1(CCN(C)CC1)S2 | > 100 µM (inactive) | > 100 µM (inactive) | – | > 100 | > 100 µM (inactive) | > 100 µM (inactive) | > 100 µM (inactive) | > 100 µM (inactive) | – | > 100 µM (inactive) | > 100 µM (inactive) | 60.5 µM (inactive) | > 100 µM (inactive) | > 100 µM (inactive) | > 100 µM (inactive) | – | > 100 µM (inactive) | > 100 µM (inactive) | – | > 100 µM (inactive) |
| O=C(O)C1CC2(C1)CC(C(=O)O)C2 (stereo not drawn) | > 100 µM (inactive) | > 100 µM (inactive) | > 100 µM (inactive) | > 100 | > 100 µM (inactive) | > 100 µM (inactive) | > 100 µM (inactive) | > 100 µM (inactive) | > 100 µM (inactive) | > 100 µM (inactive) | > 100 µM (inactive) | > 100 µM (inactive) | > 100 µM (inactive) | > 100 µM (inactive) | > 100 µM (inactive) | > 100 µM (inactive) | > 100 µM (inactive) | – | > 100 µM (inactive) | > 100 µM (inactive) |
| CC1=C[C@H](O)[C@@]2(C)[C@@H]([C@@H]1C)[C@H]1CC[C@@H]3[C@@]4(C)CC[C@H](O)C(C)(C)[C@@H]4CC[C@@]3(C)[C@]1(C)C[C@@H]2O | 14 µM (inactive) | 12.8 µM (inactive) | 20.8 µM (inactive) | 19 | 13.8 µM (inactive) | 19.6 µM (inactive) | 15.8 µM (inactive) | 13.7 µM (inactive) | 17.9 µM (inactive) | 19.8 µM (inactive) | 17.9 µM (inactive) | 16.5 µM (inactive) | 15.2 µM (inactive) | – | – | 22.2 µM (inactive) | 18.6 µM (inactive) | 13.8 µM (inactive) | 17.6 µM (inactive) | 18.3 µM (inactive) |
| CCOC(=O)NC(C(=O)OCC)C(F)(F)F (stereo not drawn) | > 100 µM (inactive) | > 100 µM (inactive) | > 100 µM (inactive) | > 100 | > 100 µM (inactive) | > 100 µM (inactive) | > 100 µM (inactive) | 93.8 µM (inactive) | – | > 100 µM (inactive) | – | > 100 µM (inactive) | > 100 µM (inactive) | > 100 µM (inactive) | 48.4 µM (inactive) | > 100 µM (inactive) | > 100 µM (inactive) | 71.4 µM (inactive) | – | > 100 µM (inactive) |
| O=NN(CCCl)C(=O)NC1CCCCC1 [LOMUSTINE] | 16.4 µM (inactive) | 51.6 µM (inactive) | – | 29.9 | 53.8 µM (inactive) | 22 µM (inactive) | 18.7 µM (inactive) | 18.4 µM (inactive) | 24.4 µM (inactive) | 51.3 µM (inactive) | 61.4 µM (inactive) | 54.7 µM (inactive) | 46.6 µM (inactive) | 37.2 µM (inactive) | – | 73.1 µM (inactive) | 84.1 µM (inactive) | 31.3 µM (inactive) | 35.3 µM (inactive) | 58.7 µM (inactive) |
| c1ccc2c3nnc(c2c1)SCCSCCCSCCS3 | 29.1 µM (inactive) | 91 µM (inactive) | 39.7 µM (inactive) | > 100 | > 100 µM (inactive) | > 100 µM (inactive) | > 100 µM (inactive) | – | 50.9 µM (inactive) | 75.3 µM (inactive) | 2.9 µM (inactive) | 54.1 µM (inactive) | 53.8 µM (inactive) | 3.52 µM (inactive) | – | 48 µM (inactive) | 44.3 µM (inactive) | 37.2 µM (inactive) | 38.5 µM (inactive) | > 100 µM (inactive) |
| C=CC[C@]1(/C=N/O)CN(S(=O)(=O)CC[Si](C)(C)C)C[C@H]2CC=CC[C@H]21 | 18.5 µM (inactive) | 16 µM (inactive) | 17.1 µM (inactive) | 38.4 | 16.2 µM (inactive) | 18.4 µM (inactive) | 20.3 µM (inactive) | 16.4 µM (inactive) | 15.8 µM (inactive) | 39.8 µM (inactive) | 14.8 µM (inactive) | 29.4 µM (inactive) | 16.2 µM (inactive) | 21 µM (inactive) | – | 19.5 µM (inactive) | 26.3 µM (inactive) | – | 13.6 µM (inactive) | 22.6 µM (inactive) |
| COI1NC(=O)c2ccccc21 | > 100 µM (inactive) | > 100 µM (inactive) | – | > 100 | > 100 µM (inactive) | > 100 µM (inactive) | > 100 µM (inactive) | > 100 µM (inactive) | 74 µM (inactive) | > 100 µM (inactive) | > 100 µM (inactive) | > 100 µM (inactive) | > 100 µM (inactive) | > 100 µM (inactive) | > 100 µM (inactive) | > 100 µM (inactive) | > 100 µM (inactive) | > 100 µM (inactive) | – | > 100 µM (inactive) |
| CCOc1ccc2nc(NC(=O)C(=O)C3C(=O)C(CC4C(=O)c5ccccc5C4=O)C(=O)CC3(C)C)sc2c1 (stereo not drawn) | > 100 µM (inactive) | 87.5 µM (inactive) | 80 µM (inactive) | > 100 | > 100 µM (inactive) | – | > 100 µM (inactive) | 13.5 µM (inactive) | > 100 µM (inactive) | > 100 µM (inactive) | 56.1 µM (inactive) | 96.4 µM (inactive) | > 100 µM (inactive) | > 100 µM (inactive) | – | > 100 µM (inactive) | 18.9 µM (inactive) | 34.6 µM (inactive) | > 100 µM (inactive) | > 100 µM (inactive) |
| O=c1cc(NNc2ccc(F)cc2)[nH]c(=O)[nH]1 | 12.5 µM (inactive) | 18.3 µM (inactive) | – | 16.1 | 16.9 µM (inactive) | 17.8 µM (inactive) | 16.4 µM (inactive) | 19.8 µM (inactive) | – | 28.2 µM (inactive) | 9.68 µM (inactive) | 25.7 µM (inactive) | 18.2 µM (inactive) | 12.7 µM (inactive) | 35.1 µM (inactive) | 22 µM (inactive) | 17.9 µM (inactive) | – | 15.5 µM (inactive) | 18.3 µM (inactive) |
| OCCN(CCO)c1nc(N2CCCCC2)c2nc(N(CCO)CCO)nc(N3CCCCC3)c2n1 [DIPYRIDAMOLE] | 31.9 µM (inactive) | 38.5 µM (inactive) | 45.5 µM (inactive) | 31.4 | 19.5 µM (inactive) | 24.8 µM (inactive) | 45.8 µM (inactive) | 24.4 µM (inactive) | 17.9 µM (inactive) | 22 µM (inactive) | 59.4 µM (inactive) | 21.6 µM (inactive) | 34 µM (inactive) | – | 3.46 µM (inactive) | 17.1 µM (inactive) | 33 µM (inactive) | 12.1 µM (inactive) | – | 43 µM (inactive) |
| CCCCCCCCCCCCCCCCCCNC(=O)C(N)Cc1ccc(OCc2ccccc2)cn1 (stereo not drawn) | 24.5 µM (inactive) | 19.5 µM (inactive) | 17.2 µM (inactive) | 18.9 | 16.8 µM (inactive) | 23.1 µM (inactive) | 26.5 µM (inactive) | 16 µM (inactive) | 18.7 µM (inactive) | 20 µM (inactive) | 17.2 µM (inactive) | 18 µM (inactive) | 27.7 µM (inactive) | 27.4 µM (inactive) | – | 15.4 µM (inactive) | 17.3 µM (inactive) | 17.1 µM (inactive) | 20 µM (inactive) | 24.1 µM (inactive) |
